# Laboratory results reported in patent US20220204539A1, “CD73 INHIBITORS” (BioArdis LLC, priority 2019, published 2022).
# Like-named read-outs stand apart in the source and are kept apart here.
# Experiments:
# [1] = molecular target: T1, Cell surface CD73 of U87 MG human glioblastoma cells (Homo sapiens, UniProt P21589); experiment: CD73 Cellular Assay; format: cell-based; settings: 5000 cells per well, 30 μM AMP substrate, read-out: Potency (IC50, CD73 cellular assay)
# T1 construct: Cell surface CD73 catalyzes the conversion of adenosine monophosphate (AMP) to adenosine and inorganic phosphate; endogenous in cells; host or cells: U87 MG human glioblastoma cells
# T1 sequence (P21589 27-549): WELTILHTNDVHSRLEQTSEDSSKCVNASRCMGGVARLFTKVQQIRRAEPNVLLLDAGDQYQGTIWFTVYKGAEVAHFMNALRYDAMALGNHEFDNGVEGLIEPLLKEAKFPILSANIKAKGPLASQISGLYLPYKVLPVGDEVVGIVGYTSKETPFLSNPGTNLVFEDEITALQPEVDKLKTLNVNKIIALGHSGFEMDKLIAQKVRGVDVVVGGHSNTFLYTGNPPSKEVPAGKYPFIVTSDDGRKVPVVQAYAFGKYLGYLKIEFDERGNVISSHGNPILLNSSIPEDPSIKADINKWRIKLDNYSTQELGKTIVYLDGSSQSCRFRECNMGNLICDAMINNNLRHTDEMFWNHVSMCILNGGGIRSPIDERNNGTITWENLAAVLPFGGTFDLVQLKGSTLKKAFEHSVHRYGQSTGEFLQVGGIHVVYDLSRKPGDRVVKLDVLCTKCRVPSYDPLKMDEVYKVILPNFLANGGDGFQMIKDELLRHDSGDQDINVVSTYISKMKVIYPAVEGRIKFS
# Method: Cell surface CD73 catalyzes the conversion of adenosine monophosphate (AMP) to adenosine and inorganic phosphate. U87 MG human glioblastoma cells express high level of CD73. Cells are treated with compounds in a 96-well assay plate and supernatants are collected into a 384-well detection plate. The concentration of inorganic phosphate (Pi) in the supernatants is determined using the phosphate detection reagent, PiColorLock™ (Innova Bioscience, Cat #303-0125) following the manufacturer's instructions.
# Briefly, on the day of the assay, U87 MG cells were harvested and resuspended in assay buffer which consisted of 20 mM HEPES, pH=7.4, 137 mM NaCl, 5.4 mM KCl, 1.3 mM CaCl2, 4.2 mM NaHCO3 and 0.1% glucose. To test the effect of compounds on cellular CD73 enzymatic activity, 500 nL/well of compounds dissolved in DMSO were added to a 96-well TC-treated microplate (Corning #3599). Next, 80 μL/well of U87 MG cells in assay buffer were added to assay plate. After 30 minutes of incubation in an atmosphere of 5% CO2 at 37° C., 20 μL/well of 150 μM AMP (Adenosine 5′-monophosphate monohydrate, Sigma, Cat #01930) in assay buffer was added to assay plate. Final assay conditions consisted of 5000 cells per well in 0.5% DMSO and 30 μM AMP substrate. After 50 minutes of incubation in an atmosphere of 5% CO2 at 37° C., 50 μL/well of supernatant was transferred to the 384-well detection plate (Corning® NBS™ 384 well plates, Cat #3640). Meanwhile “Gold mix” was prepared shortly before use by adding 1/100 volume of accelerator to the PiColorLock™ Gold reagent. 12 μL/well of the “Gold mix” was added to detection plate containing 50 μL/well of supernatant and incubated at 25° C. for 5 minutes. 5 μL/well stabilizer was added to the detection plate and incubated at 25° C. for 30 minutes. The absorbance at 635 nm was measured on a Spark 10M instrument (TECAN). The percent (%) inhibition at each concentration of a compound was calculated relative to the OD value in the Max and Min control wells contained within each assay plate. The Max control wells contained cells and substrate as 0% inhibition, and the Min control wells only contained cells as 100% inhibition. The concentrations and percent inhibition values for a test compound are plotted and the concentration of a the compound required to achieve 50% inhibition (IC50) was determined with a four-parameter logistic dose response equation.
# [2] = molecular target: T2, Recombinant Human 5′-Nucleotidase (CD73) (Homo sapiens, UniProt P21589); experiment: CD73 Enzyme Assay; format: biochemical
# T2 construct: CHO derived CD73 (Trp27-Lys547), with a C-terminal 6-His tag; 6-His (C); purchased R&D 5795-EN; host or cells: CHO
# T2 sequence (P21589 27-547): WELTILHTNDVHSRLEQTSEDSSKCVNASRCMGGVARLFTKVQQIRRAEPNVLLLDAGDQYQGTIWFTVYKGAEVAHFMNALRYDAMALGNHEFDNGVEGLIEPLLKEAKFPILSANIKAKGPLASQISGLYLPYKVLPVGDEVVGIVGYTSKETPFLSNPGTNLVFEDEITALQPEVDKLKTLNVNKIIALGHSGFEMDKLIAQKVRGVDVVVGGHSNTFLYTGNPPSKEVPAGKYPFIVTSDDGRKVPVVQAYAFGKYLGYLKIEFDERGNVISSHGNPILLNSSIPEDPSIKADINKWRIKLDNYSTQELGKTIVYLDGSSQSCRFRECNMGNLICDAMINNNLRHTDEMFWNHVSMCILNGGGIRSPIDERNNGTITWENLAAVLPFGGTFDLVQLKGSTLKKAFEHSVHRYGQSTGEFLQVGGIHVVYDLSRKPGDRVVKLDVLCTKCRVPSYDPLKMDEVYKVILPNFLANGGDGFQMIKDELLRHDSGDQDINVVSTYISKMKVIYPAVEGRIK
# From the text: Soluble recombinant CD73 catalyzes the conversion of adenosine monophosphate (AMP) to adenosine and inorganic phosphate. The phosphate detection reagent, PiColorLock™ (Innova Bioscience, Cat #303-0125) is based on the change in absorbance of the dye malachite green in the presence of inorganic phosphate (Pi) and this property can be exploited to measure any enzyme that generates Pi. Recombinant Human 5′-Nucleotidase (CD73) (R&D #5795-EN, CHO derived CD73 (Trp27-Lys547), with a C-terminal 6-His tag) was used in the enzymatic assay. This assay was run in a 384-well plate format (Corning® NBS™ 384 well plates, Cat #3640). The basic assay procedure involves two steps: 1) Enzyme reaction: The CD73 enzyme (R&D #5795-EN) is incubated in the presence or absence of compounds. AMP (sigma, cat #01930) is added to start the […] reaction. 2) Detection step: Gold mix is added to the assay system, then stabilizers are added. After incubation the absorbance of the solution is read at OD 635 nm. The recorded OD signal is proportional to the enzyme activity.
# Briefly, 25 μl human CD73 (0.5 nM final concentration) in the enzymatic buffer solutions (20 mM Tris, 25 mM NaCl, 1 mM MgCl2, pH 7.5, 0.005% Tween-20) were mixed with various concentrations of the test compound (dissolved in 100% DMSO). These solutions were incubated for 15 min at 25° C., and subsequently 25 μl AMP (30 μM final concentration) was added to start the reaction. The final reaction mixture of enzyme-substrate-compound was incubated for 20 min at 37° C. Meanwhile ‘Gold mix’ was prepared shortly before use by adding 1/100 vol. of accelerator to the PiColorLock™ Gold reagent. 12 μL/well of the ‘Gold mix’ was added to assay plate containing 50 μL enzyme reaction buffer and incubated at 25° C. for 5 min. 5 μL/well stabilizer was added to the assay plate and incubated at 25° C. for 30 min. The absorbance of the well solutions was measured at 635 nm on a Spark 10M instrument (TECAN).
# The percent (%) inhibition at each concentration of a compound was calculated relative to the OD value in the Max and Min control wells contained within each assay plate. The Max control wells contained enzyme and substrate as 0% inhibition, and the M control wells only contained substrate without enzyme as 100% inhibition. The concentrations and percent inhibition values for a test compound are plotted and the concentration of the compound required to achieve 50% inhibition (IC50) was determined with a four-parameter logistic dose response equation.
# [3] = human CD73 0.5 nM, AMP 30 μM, PiColorLock phosphate detection, read-out: Potency (IC50, CD73 enzyme assay)
SMILES,IC50 [1],"IC50 [2, 3]",IC50 [2]
"O=P(O)(O)CP(=O)(O)OC[C@H]1O[C@@H](c2cnc3c(NC4CCCC4)ncnn23)[C@H](O)[C@@H]1O [Compound 1, (((((2R,3S,4R,5S)-5-(4-(cyclopentylamino)imidazo[2,1-f][1,2,4]triazin-7-yl)-3,4-dihydroxytetrahydrofuran-2-yl)methoxyxhydroxy)phosphoryl)methyl)phosphonic acid]",< 1 nM,< 10 nM,–
"O=P(O)(O)CP(=O)(O)OC[C@H]1O[C@@H](c2cnc3c(NCc4ccccc4)ncnn23)[C@H](O)[C@@H]1O [Compound 2, (((((2R,3S,4R,1S)-5-(4-(benzylamino)imidazo[2,1-f][1,2,4]triazin-7-yl)-3,4-dihydroxytetrahydrofuran-2-yl)methoxy)(hydroxy)phosphoryl)methyl)phosphonic Acid]",1 to 9.9 nM,10 to 99 nM,–
"CC(C)OC(=O)OCOP(=O)(CP(=O)(O)OC[C@H]1O[C@@H](c2cnc3c(NC4CCCC4)nc(Cl)nn23)[C@H](O)[C@@H]1O)OCOC(=O)OC(C)C [Compound 70, (((((((2R,3S,4R,5S)-5-(2-chloro-4-(cyclopentylamino)imidazo[2,1-f][1,2,4]triazin-7-yl)-3,4-dihydroxytetrahydrofuran-2-yl)methoxy)(hydroxy)phosphoryl)methyl)phosphoryl)bis(oxy)) bis(methylene) diisopropyl bis(carbonate)]",–,100 to 999 nM,–
"COP(=O)(CP(=O)(O)O)OC[C@H]1O[C@@H](c2cnc3c(NC4CCCC4)nc(Cl)nn23)[C@H](O)[C@@H]1O (stereo partly drawn) [Compound 71, (((((2R,3S,4R,1S)-5-(2-chloro-4-(cyclopentylamino)imidazo[2,1-f][1,2,4]triazin-7-yl)-3,4-dihydroxytetrahydrofuran-2-yl)methoxy)(methoxy)phosphoryl)methy)phosphonic Acid]",–,–,10 to 99 nM
"COP(=O)(CP(=O)(OC)OC[C@H]1O[C@@H](c2cnc3c(N4CC5CCCC5C4)nc(Cl)nn23)[C@@H](F)[C@@H]1O)OC (stereo partly drawn) [Compound 76, ((2R,3R,4S,5S)-5-(2-chloro-4-(hexahydrocyclopenta[c]pyrrol-2(1H)-yl)imidazo[2,1-f][1,2,4]triazin-7-yl)-4-fluoro-3-hydroxytetrahydrofuran-2-yl)methyl methyl ((dimethoxyphosphoryl)methyl)phosphonate]",–,> 1000 nM,–
"O=P(O)(O)CP(=O)(O)OC[C@H]1O[C@@H](c2cnc3c(NCC4CCC(O)CC4)nc(Cl)nn23)[C@H](O)[C@@H]1O (stereo partly drawn) [Compound 77, (((((2R,3S,4R,1S)-5-(2-chloro-4-(((4-hydroxycyclohexyl)methyl)amino)imidazo[2,1-f][1,2,4]triazin-7-yl)-3,4-dihydroxytetrahydrofuran-2-yl)methoxy)(hydroxy)phosphoryl)methyl)phosphonic Acid]",–,< 10 nM,–
"O=P(O)(O)CP(=O)(O)OC[C@H]1O[C@@H](c2cnc3c(NCC4CCCC(O)C4)nc(Cl)nn23)[C@H](O)[C@@H]1O (stereo partly drawn) [Compound 78, (((((2R,3S,4R,5S)-5-(2-chloro-4-(((3-hydroxycyclohexyl)methyl)amino)imidazo[2,1-f][1,2,4]triazin-7-yl)-3,4-dihydroxytetrahydrofuran-2-yl)methoxy)(hydroxy)phosphoryl)methyl) phosphonic acid]",–,< 10 nM,–
"O=P(O)(O)CP(=O)(O)OC[C@H]1O[C@@H](c2cnc3c(N[C@H]4CC[C@H](N5CCCCC5)C4)nc(Cl)nn23)[C@H](O)[C@@H]1O [Compound 79, (((((2R,3S,4R,1S)-5-(2-chloro-4-(((1S,3S)-3-(piperidin-1-yl)cyclopentyl)amino)imidazo[2,1-f][1,2,4]triazin-7-yl)-3,4-dihydroxytetrahydrofuran-2-yl)methoxy)(hydroxy)phosphoryl)methyl)phosphonic Acid]",–,< 10 nM,–
"C=Cc1nc(NC2CCCC2)c2ncc([C@@H]3O[C@H](COP(=O)(O)CP(=O)(O)O)[C@@H](O)[C@H]3O)n2n1 [Compound 80, (((((2R,3S,4R,1S)-5-(4-(cyclopentylamino)-2-vinylimidazo[2,1-f][1,2,4]triazin-7-yl)-3,4-dihydroxytetrahydrofuran-2-yl)methoxy)(hydroxy)phosphoryl)methyl)phosphonic Acid]",–,10 to 99 nM,–
"O=P(O)(O)CP(=O)(O)OC[C@H]1O[C@@H](c2coc3c(NCc4ccccc4)ncnc23)[C@H](O)[C@@H]1O [Compound 81, (((((2R,3S,4R,5R)-5-(4-(benzylamino)furo[3,2-d]pyrimidin-7-yl)-3,4-dihydroxytetrahydrofuran-2-yl)methoxyxhydroxy)phosphoryl)methyl)phosphonic acid]",–,10 to 99 nM,–
